Source: ChEMBL document CHEMBL6134907, “Synthesis of 5,9- and 5,8-Diaminoalkoxy Substituted Benzophenanthridinone Analogues as Tyrosyl-DNA Phosphodiesterase 1 Inhibitors and Their Radiosensitizing Activity” (J Med Chem, 2025)
The source made the active and inactive calls. The rule behind the calls is not given here.

Experiments:
[1] = test system: HCT-116; assay: Effect on Lig4 expression in wild type human HCT-116 cells assessed as change in protein level at 5 to 10 uM radiated with 4 GY ionizing radiation (IR) measured after 24 hrs by Western blot analysis; format: functional, cell-based; details: dose 5-10 µM
[2] = Toxicity in BALB/c mouse xenografted with human HCT-116 cells assessed as change in body weight at 10 mg/kg, ip every day for 14 days; format: organism-based; details: in vivo, 336 h, time 14 day
[3] = test system: HCT-116; assay: Reduction of XRCC4 expression in wild type human HCT-116 cells assessed as reduction in protein level at 5 to 10 uM radiated with 4 GY ionizing radiation (IR) measured after 24 hrs by Western blot analysis; format: functional, cell-based; details: dose 5-10 µM
[4] = test system: HCT-116; assay: Induction of apoptosis in human HCT-116 cells assessed as viable cells at 10 uM measured after 24 hrs by FITC Annexin V/PI apoptosis detection assay (reference value: 99.71%); format: functional; details: read-out: Activity
[5] = test system: HCT-116; assay: Induction of cell cycle arrest in human HCT-116 cells assessed as accumulation of cells at G2/M phase at 5 uM measured after 24 hrs by Propidium iodide (PI) staining based assay (reference value: 15.77%); format: functional
[6] = test system: HCT-116; assay: Anti-tumor activity against human HCT-116 cells xenografted in BALB/c mouse assessed as tumor growth inhibition at 10 mg/kg, ip every day for 14 days; format: functional, organism-based; details: time 14.0 day
[7] = test system: HCT-116; assay: Effect on Ku70/80 expression in wild type human HCT-116 cells assessed as change in protein level at 5 to 10 uM measured after 24 hrs by Western blot analysis; format: functional, cell-based; details: dose 5-10 µM
[8] = test system: HCT-116; assay: Induction of 4GY ionizing radiation (IR) induced apoptosis in human HCT-116 cells measured after 24 hrs by TUNEL staining based analysis; format: functional, cell-based; details: dose 5-10 µM
[9] = MRT infinity in male Sprague-Dawley rat at 5 mg/kg, IG measured up to 24 hrs by LCMS-MS analysis; format: ADME, organism-based; details: in vivo, po
[10] = test system: HCT-116; assay: Reduction of XRCC4 expression in wild type human HCT-116 cells assessed as reduction in mRNA level at 5 to 10 uM measured after 24 hrs by qRT-PCR analysis; format: functional, cell-based; details: dose 5-10 µM
[11] = Toxicity in BALB/c mouse xenografted with human HCT-116 cells assessed as change in kidney weight at 1 to 10 mg/kg, ip every day for 14 days; format: organism-based; details: in vivo, 336 h, dose 1-10 mg/kg, time 14 day
[12] = test system: HCT-116; assay: Induction of apoptosis in human HCT-116 cells assessed as induction of 4GY ionizing radiation (IR) induced cleaved Caspase-9 at 5 uM measured after 24 hrs by Western blot analysis; format: functional, cell-based
[13] = test system: HCT-116; assay: Anti-tumor activity against human HCT-116 cells xenografted in BALB/c mouse assessed as tumor growth inhibition at 1 mg/kg, ip every day for 14 days; format: functional, organism-based; details: time 14.0 day
[14] = test system: HCT-116; assay: Reduction in recruitment of XRCC4 at damage site of human HCT-116 cells at 5 uM radiated with 4 GY ionizing radiation (IR) measured after 3 hrs by fluorescence colocalization assay; format: functional, cell-based
[15] = test system: HCT-116; assay: Effect on Ku70/80 expression in wild type human HCT-116 cells assessed as change in mRNA level at 5 to 10 uM measured after 24 hrs by qRT-PCR analysis; format: functional, cell-based; details: dose 5-10 µM
[16] = test system: RKO; assay: Synergistic cytotoxicity against human RKO cells assessed as combination index at 5 uM incubated for 48 hrs in presence of 2GY ionizing radiation (IR); format: functional
[17] = Induction of 4GY ionizing radiation (IR) induced cell cycle arrest in human HCT-116 cells assessed as accumulation of cells at S phase at 5 uM measured after 24 hrs by Propidium iodide (PI) staining based assay (reference value: 11.48%); format: functional
[18] = Toxicity in BALB/c mouse xenografted with human HCT-116 cells assessed as change in spleen weight at 1 to 10 mg/kg, ip every day for 14 days; format: organism-based; details: in vivo, 336 h, dose 1-10 mg/kg, time 14 day
[19] = test system: HCT-116; assay: Synergistic cytotoxicity against human SgTDP1-HCT-116 cells (TDP1 knockout) assessed as combination index at 0.5 uM incubated for 48 hrs in presence of 2GY ionizing radiation; format: functional
[20] = test system: HCT-116; assay: Induction of ROS generation in human HCT-116 cells assessed as fold increase in intracellular ROS level at 10 uM under […] ionizing radiation (IR) measured after 20 mins by ELIASA analysis; format: functional
[21] = test system: HCT-116; assay: In vivo radiosensitizing activity in human HCT-116 cells xenografted in BALB/c mouse assessed as sensitization of 1 GY ionizing radiation induced tumor growth inhibition at 1 mg/kg, ip every day for 14 days radiated for every 2 days once; format: functional, organism-based; details: time 14.0 day
[22] = test system: A549; assay: Radiosensitizing activity in human A549 cells assessed as sensitization of 2 GY ionizing radiation induced decrease in cell survival by colony formation assay; format: functional, cell-based
[23] = Toxicity in BALB/c mouse xenografted with human HCT-116 cells assessed as change in body weight at 1 mg/kg, ip every day for 14 days; format: organism-based; details: in vivo, 336 h, time 14 day
[24] = test system: Tyrosyl-DNA phosphodiesterase 1/Deoxyribonucleic acid; assay: Stabilization of TDP1/DNA complex in human HCT-116 cells at 100 uM by Cellular Thermal Shift Assay (CETSA); format: cell-based
[25] = test system: HCT-116; assay: Induction of 4GY ionizing radiation (IR) induced apoptosis in human HCT-116 cells assessed as viable cells at 5 uM measured after 24 hrs by FITC Annexin V/PI apoptosis detection assay (reference value: 66.88%); format: functional; details: read-out: Activity
[26] = test system: HCT-116; assay: Synergistic cytotoxicity against human HCT116 cells assessed as combination index at 5 uM incubated for 48 hrs in presence of 2GY ionizing radiation (IR); format: functional
[27] = test system: HeLa; assay: Radiosensitizing activity in human HeLa cells assessed as sensitization of 2 GY ionizing radiation induced decrease in cell survival by colony formation assay; format: functional, cell-based
[28] = Toxicity in BALB/c mouse xenografted with human HCT-116 cells assessed as change in lung weight at 1 to 10 mg/kg, ip every day for 14 days; format: organism-based; details: in vivo, 336 h, dose 1-10 mg/kg, time 14 day
[29] = test system: HCT-116; assay: Induction of apoptosis in human HCT-116 cells assessed as induction of 4GY ionizing radiation (IR) induced cleaved PARP at 5 uM measured after 24 hrs by Western blot analysis; format: functional, cell-based
[30] = Toxicity in human NCM460 cells assessed as 2GY ionizing radiation radiosensitisation mediated cell killing; format: cell-based
[31] = test system: HCT-116; assay: Induction of apoptosis in human HCT-116 cells assessed as induction of 4GY ionizing radiation (IR) induced cleaved Caspase-3 at 5 uM measured after 24 hrs by Western blot analysis; format: functional, cell-based
[32] = target: Tyrosyl-DNA phosphodiesterase 1 (Homo sapiens, UniProt Q9NUW8); assay: Inhibition of TDP1 in human SgTDP1-HCT-116 cells (TDP1 knockout) at 1.11 mM; format: cell-based
[33] = AUClast in male Sprague-Dawley rat at 5 mg/kg, IG measured up to 24 hrs by LCMS-MS analysis; format: ADME, organism-based; details: in vivo, po
[34] = test system: HCT-116; assay: Upregulation of p53 signaling pathway in human HCT-116 cells at 5 uM measured after 24 hrs by KEGG analysis; format: functional, cell-based
[35] = Tmax in male Sprague-Dawley rat at 5 mg/kg, IG measured up to 24 hrs by LCMS-MS analysis; format: ADME, organism-based; details: in vivo, po

Tyrosyl-DNA phosphodiesterase 1, sequence (Q9NUW8 whole entry): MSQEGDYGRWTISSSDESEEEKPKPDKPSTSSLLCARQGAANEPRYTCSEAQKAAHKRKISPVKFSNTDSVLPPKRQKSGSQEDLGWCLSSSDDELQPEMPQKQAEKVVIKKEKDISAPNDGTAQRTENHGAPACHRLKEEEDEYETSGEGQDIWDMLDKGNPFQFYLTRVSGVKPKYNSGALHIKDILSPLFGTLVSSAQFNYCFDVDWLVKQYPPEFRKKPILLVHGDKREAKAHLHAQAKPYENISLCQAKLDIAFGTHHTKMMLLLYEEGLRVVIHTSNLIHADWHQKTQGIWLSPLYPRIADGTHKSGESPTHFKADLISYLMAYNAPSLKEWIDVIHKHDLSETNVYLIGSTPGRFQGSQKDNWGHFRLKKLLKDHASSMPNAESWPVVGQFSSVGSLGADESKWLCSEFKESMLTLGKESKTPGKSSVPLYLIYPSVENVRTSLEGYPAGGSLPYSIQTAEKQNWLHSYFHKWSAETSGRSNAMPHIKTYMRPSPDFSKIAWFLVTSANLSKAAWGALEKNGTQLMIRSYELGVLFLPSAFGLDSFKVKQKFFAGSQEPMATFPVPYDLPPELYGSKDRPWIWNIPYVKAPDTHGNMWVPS

For `COc1cc2c(=O)n(CCN(C)C)c3c4cc5c(cc4ccc3c2cc1OCCN1CCOCC1)OCO5`, the Activity [1] was “inactive”, the Activity [2] was “Non-toxic” and the Activity [3] was “Active”. For the same compound, the viability at 10 µM [4] was 72.1%, the Activity [5] was 18.4% and the TGI [6] was “inactive”. The Activity [7] was “inactive”, the Activity [8] was “Dose-dependent-effect” and the MRT inf [9] was 7.06 h. The Activity [10] was “Active”, the Activity [11] was “Non-toxic” and the Activity [12] was “Active”. The TGI [13] was “inactive”, the Activity [14] was “Active” and the Activity [15] was “inactive”. The CI [16] was under 0.3, the Activity [17] was 11.88% and the Activity [18] was “Non-toxic”. For the same compound, the CI [19] was 0.94, the “fold change (FC)” value [20] was 2.1 and the TGI [21] was “Active”. The Activity [22] was “inactive”, the Activity [23] was “Non-toxic” and the Activity [24] was “Active; Coincubation With Ionizing Radiation Showed Greater Complex Formation”. For the same compound, the viability at 5 µM [25] was 61.3%, the CI [26] was under 0.3 and the Activity [27] was “inactive”. For the same compound, the Activity [28] was “Non-toxic”, the Activity [29] was “Active” and the Activity [30] was “Non-toxic”. For the same compound, the Activity [31] was “Active”, the inhibition [32] was “inactive” and the AUC(0-t) at 24 h [33] was 779 ng·h/mL. The Activity [34] was “Active” and the Tmax [35] was 4 h.
